One may read the IC50 as the point on the concentration scale where inhibition reaches its midpoint.

Chain of EGFR (human) (P00533 whole entry, looked up): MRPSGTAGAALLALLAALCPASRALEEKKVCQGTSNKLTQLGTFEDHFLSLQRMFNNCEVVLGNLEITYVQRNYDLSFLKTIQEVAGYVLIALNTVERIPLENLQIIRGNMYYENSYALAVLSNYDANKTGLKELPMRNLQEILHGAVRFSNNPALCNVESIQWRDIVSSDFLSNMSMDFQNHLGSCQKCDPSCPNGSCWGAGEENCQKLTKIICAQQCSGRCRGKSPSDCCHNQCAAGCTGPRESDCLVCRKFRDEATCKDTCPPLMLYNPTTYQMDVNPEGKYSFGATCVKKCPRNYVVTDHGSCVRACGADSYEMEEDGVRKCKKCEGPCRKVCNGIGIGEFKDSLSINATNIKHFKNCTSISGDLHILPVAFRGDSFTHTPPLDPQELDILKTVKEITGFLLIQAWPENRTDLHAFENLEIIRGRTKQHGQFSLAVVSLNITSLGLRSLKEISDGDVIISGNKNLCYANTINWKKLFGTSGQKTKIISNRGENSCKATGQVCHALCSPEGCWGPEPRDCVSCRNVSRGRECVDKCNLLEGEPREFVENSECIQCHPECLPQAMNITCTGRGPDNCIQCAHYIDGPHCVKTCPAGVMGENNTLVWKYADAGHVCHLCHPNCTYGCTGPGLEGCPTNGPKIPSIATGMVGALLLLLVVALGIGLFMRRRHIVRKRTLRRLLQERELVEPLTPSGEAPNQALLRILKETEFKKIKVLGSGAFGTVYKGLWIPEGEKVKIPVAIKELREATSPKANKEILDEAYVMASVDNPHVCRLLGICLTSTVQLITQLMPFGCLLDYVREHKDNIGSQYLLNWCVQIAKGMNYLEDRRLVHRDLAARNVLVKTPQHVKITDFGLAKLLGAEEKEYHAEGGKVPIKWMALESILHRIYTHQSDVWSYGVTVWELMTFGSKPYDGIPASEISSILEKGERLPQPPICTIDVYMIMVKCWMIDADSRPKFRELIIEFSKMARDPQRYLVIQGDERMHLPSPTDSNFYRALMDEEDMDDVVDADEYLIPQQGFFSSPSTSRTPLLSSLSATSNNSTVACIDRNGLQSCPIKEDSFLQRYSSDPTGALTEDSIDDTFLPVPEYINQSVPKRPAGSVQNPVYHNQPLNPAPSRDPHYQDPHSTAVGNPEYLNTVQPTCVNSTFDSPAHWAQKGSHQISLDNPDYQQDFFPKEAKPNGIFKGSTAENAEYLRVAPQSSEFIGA
Chain of EGFR (P00533 whole entry, looked up): as above

The first assay has as its target EGFR (human) (UniProt P00533). Conditions: kb epidermoid nasopharynx.
In turn, `COCC(=O)N1CC[C@@H](Oc2cc3ncnc(Nc4cccc(Cl)c4F)c3cc2OC)C1` displayed an IC50 of 119 nM.
`COc1cc2c(Nc3cccc(Cl)c3F)ncnc2cc1OC1CN(C(=O)[C@@H](C)O)C1` showed a concentration for half-maximal inhibition (IC50) of 48 nM.
The same measure, in the same setting: the value for `COc1cc2c(Nc3cccc(Cl)c3F)ncnc2cc1O[C@@H]1CCN(C(=O)C2CCC(=O)N2)C1` (stereo partly drawn) was 397 nM; that for `COc1cc2c(Nc3cccc(Cl)c3F)ncnc2cc1OC1CCN(C(=O)CCO)CC1` was 109 nM; that for `COc1cc2c(Nc3cccc(Cl)c3F)ncnc2cc1OC1CCN(C(=O)CO)CC1` was 37 nM.
As to `COCCOCC(=O)N1CCC(Oc2cc3ncnc(Nc4cccc(Cl)c4F)c3cc2OC)CC1`, the half-inhibitory concentration (IC50) was 112 nM.
Same read-out and setting: the value for `COc1cc2ncnc(Nc3cccc(Cl)c3F)c2cc1CN1CSC[C@H]1C(N)=O` was 50 nM; that for `COCCN1CCN(Cc2cc3c(Nc4cccc(Cl)c4F)ncnc3cc2OC)C(C(N)=O)C1` (stereo not drawn) was 160 nM; that for `COc1cc2ncnc(Nc3ccc(F)c(Cl)c3)c2cc1CN1CCC[C@@H]1C(=O)NCC#N` was 143 nM.
The molecule `COCC(=O)N1CCC(Oc2cc3ncnc(Nc4cccc(Cl)c4F)c3cc2OC)CC1` displayed an IC50 of 55 nM.
On to `COCCC(=O)N1CCC(Oc2cc3ncnc(Nc4cccc(Cl)c4F)c3cc2OC)CC1`, for which the IC50 amounted to 84 nM.
`COc1cc2c(Nc3cccc(Cl)c3F)ncnc2cc1OC1CN(C(=O)[C@H](C)O)C1` gave a 50% inhibitory concentration (IC50) of 71 nM.

The next assay concerns the target EGFR (UniProt P00533).
Conditions: not given
With `COc1cc2c(Nc3cccc(Cl)c3F)ncnc2cc1O[C@@H]1CCN(C(=O)C2CCC(=O)N2)C1` (stereo partly drawn), the concentration for half-maximal inhibition (IC50) came out at 41 nM.

Source of the values: the Kinase Knowledgebase extract (Sharma et al. 2016).
